Test system: diabetic ob/ob mice
Test: Assessment of level of wakefulness/activity (locomotor activity, light-beam interruption method)
Assay type: in vivo
Settings: 20 mg/kg i.p. in saline once daily for 14 days, male, 8 months old
Protocol: The effect of an administered substance (for example a ghrelin antagonist) on the level of wakefulness or activity in animal subjects (for example, mice) may be assessed by means of an activity test in which the primary measurement parameter is locomotor activity.
Baseline activity is determined for all the animals 1-2 days prior to administration of saline (placebo) or ghrelin antagonist. The animals are subsequently monitored, either acutely or at the end of a more sub-chronic or chronic treatment lasting several days or weeks, for behavioural sensitization. On testing days, the animals are allowed to acclimatize to the behavioural monitors for 30 minutes prior to data accumulation if the monitors in question are different from their “home” cages. Activity is recorded for at least 1 hour on each of the testing days (baseline and post-treatment test). In a suitable arrangement, transparent chambers of Plexiglas™ are equipped with aluminium frames on which are mounted infrared light emitters and detectors. The detectors are interfaced to a personal computer (PC). Behavioural or psychomotor activity is defined as the total number of light-beam interruptions recorded during each testing session. […]

## CNC(=O)c1noc(C(Cc2ccccc2)N(C)C(=O)[C@@H](Cc2ccc3ccccc3c2)NC(=O)/C=C/C(C)(C)N)n1 (single isomer, unassigned) [D2]
  behaviour of treated animals when observed: awake and interested in their environment
Versus saline control
  level of wakefulness/activity (locomotor activity) assessed using the light-beam interruption method: became surprisingly active and awake for the duration of the study
